Source: EP4620312A1, “ENDOTHELIN-1 SECRETION INHIBITOR” (Mitsui DM Sugar Co., Ltd., priority 2022, dated 2024)

System: endothelin-1
Test: Endothelin-1 concentration in blood (ELISA) before and after a 75-g OGTT during 12-week daily jelly ingestion
Assay type: in vivo, human
Settings: for endothelin-1 concentration at 60 minutes and 120 minutes after the 75-g OGTT compared to before the 75-g OGTT: healthy middle to elderly persons
Protocol: Subjects were 54 healthy middle to elderly persons (30 males and 24 females). All subjects were assigned to one of the groups, i.e., an isomaltulose ingestion group (Group I) and a sucrose ingestion group (Group S), in a single blind test before intervention, and the intervention was performed for 12 weeks each.
All subjects ingested jellies having compositions described in Table 1 once a day for 12 weeks continuously. Group I received a jelly containing isomaltulose (Example 1), and group S received a jelly containing sucrose (Comparative Example 1). The jelly was taken every morning before breakfast, and all subjects were instructed not to change their dietary habits during the intervention period from those before the intervention. A 75 g oral glucose tolerance test (75-g OGTT, described in detail below) was performed before the 12-week intervention and at 4 weeks, 8 weeks, and 12 weeks after the start of the intervention, after the lapse of 1 day or more from the ingestion of the jelly and the secretion amount of endothelin-1 was evaluated by the method described below before the 75-g OGTT and at 60 minutes and 120 minutes after the 75-g OGTT.
The 75-g OGTT was performed under the instruction of a doctor using TRELAN- G 75 g (Yoshindo Inc.), which is generally used in medical institutions and research, and the test solution was orally ingested in a general volume (225 mL per dose) within 5 minutes according to the guidelines of the Japan Diabetes Society (Araki E, Goto A, Kondo T, Noda M, Noto H, Origasa H, et al. Japanese Clinical Practice Guideline for Diabetes 2019. J Diabetes Investig 2020; 11: 1020-1076.).
For all subjects, blood was collected from the cubital vein in a fasting state for 12 hours or more in a hygienic environment. Before ingestion of a carbohydrate solution for the 75-g OGTT and at 60 minutes and 120 minutes after the ingestion, a nurse collected blood (15 to 20 mL per collection) using a sterilized disposable blood collection needle under the instruction of a doctor. A sample after blood collection was immediately centrifuged at 4°C and 3000 rpm for 15 minutes, and the concentration of endothelin-1 was measured by ELISA (enzyme-linked immunosorbent assay) using a test kit (Cayman Chemical, Ann Arbor) for measuring the concentration of endothelin-1.
A change in endothelin-1 concentration before and after the start of the intervention of each group was shown as the average value (95% confidence interval). For the comparison of the change in endothelin-1 concentration between the 2 groups before and after the 75-g OGTT, a two-way repeated measures ANOVA was used. The Bonferroni method was performed for comparison of changes in each intervention in post-hoc test. The total area under the curve at 90 minutes (endothelin-1 concentration AUC) was calculated using the trapezoidal rule. For statistical analysis, IBM SPSS Statistics Ver. 25 (manufactured by IBM Corporation) was used. The statistical significance level in this test was set at 5%.

[1] = jelly with 25 g once a day, oral, at 4, 8, and 12 weeks after the start of the intervention

OC[C@H]1O[C@@](CO)(O[C@H]2O[C@H](CO)[C@@H](O)[C@H](O)[C@H]2O)[C@@H](O)[C@@H]1O [sucrose, reference compound]
endothelin-1 concentration at 60 minutes and 120 minutes after the 75-g OGTT compared to before the 75-g OGTT [1]: significantly increased

6-O-α-D-glucopyranosyl-D-fructose [isomaltulose]
secretion of endothelin-1 (overall conclusion) (after 75-g OGTT at 4, 8, and 12 weeks after the start of the intervention, Group I versus Group S): inhibited the secretion of endothelin-1
endothelin-1 concentration at 60 minutes and 120 minutes after the 75-g OGTT compared to before the 75-g OGTT [1]: no significant change
endothelin-1 concentration before the 75-g OGTT and at 60 minutes and 120 minutes after the 75-g OGTT, Group I versus Group S (jelly with 25 g once a day, oral, at 4, 8, and 12 weeks after the start of the intervention, p < 0.01): significantly lower value
endothelin-1 concentration AUC, Group I versus Group S (jelly with 25 g once a day, oral, at 4, 8, and 12 weeks after the start of the intervention, trapezoidal rule, p < 0.01): significantly lower value
